Source: patent US7118895B2, “Process for producing aglycon by using diglycosidase and flavor-improved food containing the aglycon and converting agent to be used in the process” (Amano Enzyme Inc., priority 2000, dated 2006)

Test system: Crude diglycosidase
Assay: Examination of pH in the conversion into isoflavone aglycons by diglycosidase using soybean materials
Type: biochemical, Penicillium multicolor IAM7153
Set-up: Decomposition efficiency of genistin family in soymilk / Decomposition efficiency of genistin family in defatted soybean / Decomposition efficiency of daidzin family in defatted soybean: concentration or dose not given beside the values
Details: for Decomposition efficiency of daidzin family in roasted soy flour: 55° C.
In short: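 Conversion of glycosides to isoflavone aglycons was followed by HPLC after crude diglycosidase (1.88 AU/mL enzyme solution) acted at 55° C for up to 6 h on four soy materials, 50 mg each, held at pH 2–11.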

[1] = pH4.8, heat treatment of enzyme: no, reaction time 0 h
[2] = pH4.8, heat treatment of enzyme: no, reaction time 1 h
[3] = pH4.8, heat treatment of enzyme: no, reaction time 3 h
[4] = pH4.8, heat treatment of enzyme: no, reaction time 6 h
[5] = pH4.8, heat treatment of enzyme: yes, reaction time 6 h

O=c1c(-c2ccc(O)cc2)coc2cc(O[C@@H]3O[C@H](CO)[C@@H](O)[C@H](O)[C@H]3O)ccc12 [daidzin]
Decomposition efficiency of daidzin family in concentrated soybean protein (pH1.6, heat treatment of enzyme: no, reaction time 0 h): 52.5%
Decomposition efficiency of daidzin family in concentrated soybean protein (pH1.6, heat treatment of enzyme: no, reaction time 1 h): 53.0%
Decomposition efficiency of daidzin family in concentrated soybean protein (pH1.6, heat treatment of enzyme: no, reaction time 3 h): 55.0%
Decomposition efficiency of daidzin family in concentrated soybean protein (pH1.6, heat treatment of enzyme: no, reaction time 6 h): 57.2%
Decomposition efficiency of daidzin family in concentrated soybean protein (pH1.6, heat treatment of enzyme: yes, reaction time 6 h): 59.0%
Decomposition efficiency of daidzin family in roasted soy flour (pH2, heat treatment of enzyme no, reaction time 0 h): 49.1
Decomposition efficiency of daidzin family in roasted soy flour (pH2, heat treatment of enzyme no, reaction time 1 h): 47.6
Decomposition efficiency of daidzin family in roasted soy flour (pH2, heat treatment of enzyme no, reaction time 3 h): 50.3
Decomposition efficiency of daidzin family in roasted soy flour (pH2, heat treatment of enzyme no, reaction time 6 h): 53.1
Decomposition efficiency of daidzin family in roasted soy flour (pH2, heat treatment of enzyme yes, reaction time 6 h): 53.8
Decomposition efficiency of daidzin family in soymilk (pH2.3, heat treatment of enzyme: no, reaction time 0 h): 34.4%
Decomposition efficiency of daidzin family in soymilk (pH2.3, heat treatment of enzyme: no, reaction time 1 h): not detected
Decomposition efficiency of daidzin family in soymilk (pH2.3, heat treatment of enzyme: no, reaction time 3 h): not detected
Decomposition efficiency of daidzin family in soymilk (pH2.3, heat treatment of enzyme: no, reaction time 6 h): not detected
Decomposition efficiency of daidzin family in soymilk (pH2.3, heat treatment of enzyme: yes, reaction time 6 h): 38.8%
Decomposition efficiency of daidzin family in defatted soybean (pH2.6, heat treatment of enzyme: no, reaction time 0 h): 45.8%
Decomposition efficiency of daidzin family in defatted soybean (pH2.6, heat treatment of enzyme: no, reaction time 1 h): 37.5%
Decomposition efficiency of daidzin family in defatted soybean (pH2.6, heat treatment of enzyme: no, reaction time 3 h): 17.3%
Decomposition efficiency of daidzin family in defatted soybean (pH2.6, heat treatment of enzyme: no, reaction time 6 h): 16.9%
Decomposition efficiency of daidzin family in defatted soybean (pH2.6, heat treatment of enzyme: yes, reaction time 6 h): 48.0%
Decomposition efficiency of daidzin family in concentrated soybean protein (pH2.7, heat treatment of enzyme: no, reaction time 0 h): 52.5%
Decomposition efficiency of daidzin family in concentrated soybean protein (pH2.7, heat treatment of enzyme: no, reaction time 1 h): 12.9%
Decomposition efficiency of daidzin family in concentrated soybean protein (pH2.7, heat treatment of enzyme: no, reaction time 3 h): 12.5%
Decomposition efficiency of daidzin family in concentrated soybean protein (pH2.7, heat treatment of enzyme: no, reaction time 6 h): 9.3%
Decomposition efficiency of daidzin family in concentrated soybean protein (pH2.7, heat treatment of enzyme: yes, reaction time 6 h): 53.0%
Decomposition efficiency of daidzin family in roasted soy flour (pH3, heat treatment of enzyme no, reaction time 0 h): 49.1
Decomposition efficiency of daidzin family in roasted soy flour (pH3, heat treatment of enzyme no, reaction time 1 h): not detected
Decomposition efficiency of daidzin family in roasted soy flour (pH3, heat treatment of enzyme no, reaction time 3 h): not detected
Decomposition efficiency of daidzin family in roasted soy flour (pH3, heat treatment of enzyme no, reaction time 6 h): not detected
Decomposition efficiency of daidzin family in roasted soy flour (pH3, heat treatment of enzyme yes, reaction time 6 h): 49.0
Decomposition efficiency of daidzin family in defatted soybean (pH3.4, heat treatment of enzyme: no, reaction time 0 h): 45.8%
Decomposition efficiency of daidzin family in defatted soybean (pH3.4, heat treatment of enzyme: no, reaction time 1 h): not detected
Decomposition efficiency of daidzin family in defatted soybean (pH3.4, heat treatment of enzyme: no, reaction time 3 h): not detected
Decomposition efficiency of daidzin family in defatted soybean (pH3.4, heat treatment of enzyme: no, reaction time 6 h): not detected
Decomposition efficiency of daidzin family in defatted soybean (pH3.4, heat treatment of enzyme: yes, reaction time 6 h): 47.8%
Decomposition efficiency of daidzin family in soymilk (pH3.5, heat treatment of enzyme: no, reaction time 0 h): 34.4%
Decomposition efficiency of daidzin family in soymilk (pH3.5, heat treatment of enzyme: no, reaction time 1 h): not detected
Decomposition efficiency of daidzin family in soymilk (pH3.5, heat treatment of enzyme: no, reaction time 3 h): not detected
Decomposition efficiency of daidzin family in soymilk (pH3.5, heat treatment of enzyme: no, reaction time 6 h): not detected
Decomposition efficiency of daidzin family in soymilk (pH3.5, heat treatment of enzyme: yes, reaction time 6 h): 40.4%
Decomposition efficiency of daidzin family in concentrated soybean protein (pH3.7, heat treatment of enzyme: no, reaction time 0 h): 52.5%
Decomposition efficiency of daidzin family in concentrated soybean protein (pH3.7, heat treatment of enzyme: no, reaction time 1 h): not detected
Decomposition efficiency of daidzin family in concentrated soybean protein (pH3.7, heat treatment of enzyme: no, reaction time 3 h): not detected
Decomposition efficiency of daidzin family in concentrated soybean protein (pH3.7, heat treatment of enzyme: no, reaction time 6 h): not detected
Decomposition efficiency of daidzin family in concentrated soybean protein (pH3.7, heat treatment of enzyme: yes, reaction time 6 h): 52.5%
Decomposition efficiency of daidzin family in roasted soy flour (pH4, heat treatment of enzyme no, reaction time 0 h): 48.7
Decomposition efficiency of daidzin family in roasted soy flour (pH4, heat treatment of enzyme no, reaction time 1 h): not detected
Decomposition efficiency of daidzin family in roasted soy flour (pH4, heat treatment of enzyme no, reaction time 3 h): not detected
Decomposition efficiency of daidzin family in roasted soy flour (pH4, heat treatment of enzyme no, reaction time 6 h): not detected
Decomposition efficiency of daidzin family in roasted soy flour (pH4, heat treatment of enzyme yes, reaction time 6 h): 48.6
Decomposition efficiency of daidzin family in defatted soybean [1]: 43.5%
Decomposition efficiency of daidzin family in soymilk [1]: 34.9%
Decomposition efficiency of daidzin family in defatted soybean [2]: not detected
Decomposition efficiency of daidzin family in soymilk [2]: not detected
Decomposition efficiency of daidzin family in defatted soybean [3]: not detected
Decomposition efficiency of daidzin family in soymilk [3]: not detected
Decomposition efficiency of daidzin family in defatted soybean [4]: not detected
Decomposition efficiency of daidzin family in soymilk [4]: not detected
Decomposition efficiency of daidzin family in defatted soybean [5]: 37.1%
Decomposition efficiency of daidzin family in soymilk [5]: 41.2%
Decomposition efficiency of daidzin family in roasted soy flour (pH5, heat treatment of enzyme no, reaction time 0 h): 48.7
Decomposition efficiency of daidzin family in roasted soy flour (pH5, heat treatment of enzyme no, reaction time 1 h): not detected
